Results on three compounds are retold here after PMC5025651, “Reprofiled anthelmintics abate hypervirulent stationary-phase Clostridium difficile” (Scientific Reports, 2016).

One series has as its system 16 C. difficile isolates. Briefly: MIC by broth microdilution, summary over 16 C. difficile isolates. It counts as cell-based, Clostridium difficile. The following applies: n = 2; for MIC50 / MIC90: Clostridioides difficile; for MIC50: MIC at which 50% of the 16 isolates are inhibited, read-out: MIC50; for MIC90: MIC at which 90% of the 16 isolates are inhibited, read-out: MIC90; for MIC Range: range over 16 C. difficile isolates.

For series [1], the system named is C. difficile isolate 20110869 (ribotype 001_072). Description: MIC by broth microdilution. It counts as cell-based, Clostridium difficile. As to conditions: Clostridioides difficile; isolate 20110869, ribotype 001_072; duplicate; read-out: MIC.
Series [2] relates to C. difficile isolate 20110742 (ribotype 002). Briefly: MIC by broth microdilution. It counts as cell-based, Clostridium difficile. The following applies: Clostridioides difficile; isolate 20110742, ribotype 002; duplicate; read-out: MIC.
Series [3] concerns C. difficile isolate 20100584 (ribotype 014). Description: MIC by broth microdilution. It counts as cell-based, Clostridium difficile. The following applies: Clostridioides difficile; isolate 20100584, ribotype 014; duplicate; read-out: MIC.
For series [4], the system named is C. difficile isolate 20110960 (ribotype 017). Description: MIC by broth microdilution. It counts as cell-based, Clostridium difficile. The following applies: Clostridioides difficile; isolate 20110960, ribotype 017; duplicate; read-out: MIC.
In series [5] the test system is C. difficile isolate 20110740 (ribotype 018). Description: MIC by broth microdilution. As to conditions: Clostridioides difficile; isolate 20110740, ribotype 018; duplicate; read-out: MIC. It counts as cell-based, Clostridium difficile.
The test system of series [6] is C. difficile isolate 20120016 (ribotype 019). Description: MIC by broth microdilution. The class given is cell-based, Clostridium difficile. The following applies: Clostridioides difficile; isolate 20120016, ribotype 019; duplicate; read-out: MIC.
The subject of series [7] is C. difficile isolate 20110566 (ribotype 020). Description: MIC by broth microdilution. The class given is cell-based, Clostridium difficile. As to conditions: Clostridioides difficile; isolate 20110566, ribotype 020; duplicate; read-out: MIC.
Series [8] deals with C. difficile isolate 20111163 (ribotype 024). Description: MIC by broth microdilution. It counts as cell-based, Clostridium difficile. As to conditions: Clostridioides difficile; isolate 20111163, ribotype 024; duplicate; read-out: MIC.
Series [9] has as its system C. difficile isolate 20121412 (ribotype 047). Description: MIC by broth microdilution. The class given is cell-based, Clostridium difficile. The following applies: Clostridioides difficile; isolate 20121412, ribotype 047; duplicate; read-out: MIC.
Series [10] concerns C. difficile isolate 20100422 (ribotype 054). Description: MIC by broth microdilution. The class given is cell-based, Clostridium difficile. As to conditions: Clostridioides difficile; isolate 20100422, ribotype 054; duplicate; read-out: MIC.
Series [11] has as its system C. difficile isolate 20110986 (ribotype 078). Description: MIC by broth microdilution. The class given is cell-based, Clostridium difficile. The following applies: Clostridioides difficile; isolate 20110986, ribotype 078; duplicate; read-out: MIC.
Series [12] has as its system C. difficile isolate 20110973 (ribotype 106). Briefly: MIC by broth microdilution. It counts as cell-based, Clostridium difficile. The following applies: Clostridioides difficile; isolate 20110973, ribotype 106; duplicate; read-out: MIC.
The subject of series [13] is C. difficile isolate 20121190 (ribotype 126). Description: MIC by broth microdilution. The class given is cell-based, Clostridium difficile. The following applies: Clostridioides difficile; isolate 20121190, ribotype 126; duplicate; read-out: MIC.
Series [14] deals with C. difficile isolate 20110961 (ribotype A12). Briefly: MIC by broth microdilution. As to conditions: Clostridioides difficile; isolate 20110961, ribotype A12; duplicate; read-out: MIC. It counts as cell-based, Clostridium difficile.
The next series can be described thus: Hemolysis assay. It counts as cell-based. The following applies: sheep, sheep red blood cells (3% suspension), pH 7.4; 32 µg/mL, 1 h, 37 °C; 1% Triton X-100 positive control; triplicate; read-out: Hemolysis (%). Here is the method: Sheep red blood cells (Innovative Research, Novi, MI, USA) were washed three times with PBS pH 7.4. A 3% cell suspension in PBS (100 μL) was added to test compounds in PBS (100 μL, to a final concentration of 32 μg/mL), and then incubated at 37 °C for 1 h. The plate was centrifuged at 500 × g for 10 min, and supernatants (100 μL) were transferred to a clean 96-well plate. Hemolysis was determined by measuring absorbance at 540 nm, with 1% Triton X-100 as the positive control and 0.5% DMSO in PBS as the negative control. Hemolysis assays were performed in triplicate.

For series [15], the system named is C. difficile strain 630 (CD630, ATCC BAA-1382-FZ, ribotype 012). Description: MIC by broth microdilution. It counts as cell-based, Clostridium difficile.
The test system of series [16] is C. difficile strain 4118 (CD4118, ATCC BAA-1870, ribotype 027). Briefly: MIC by broth microdilution. It counts as cell-based, Clostridium difficile.
The subject of series [17] is B. breve Strain EX336960VC19. Description: MIC by broth microdilution. It counts as cell-based. As to conditions: Bifidobacterium breve; B. breve EX336960VC19; LSM broth, anaerobic; duplicate; read-out: MIC.
The test system of series [18] is B. longum subsp. longum Strain 44B. Briefly: MIC by broth microdilution. It counts as cell-based. The following applies: Bifidobacterium longum; B. longum subsp. longum 44B; LSM broth, anaerobic; duplicate; read-out: MIC.
The test system of series [19] is C. clostridioforme ATCC 25537. Description: MIC by broth microdilution. As to conditions: Clostridium, ATCC25537; C. clostridioforme ATCC 25537; BHIS, anaerobic; duplicate; read-out: MIC. The class given is cell-based, Clostridium clostridioforme.
Another series has as its system C. sporogenes ATCC 15579. Briefly: MIC by broth microdilution. It counts as cell-based. The following applies: Clostridium sporogenes, ATCC15579, BHIS, anaerobic, duplicate.
For series [20], the system named is L. johnsonii Strain 135-1-CHN. Briefly: MIC by broth microdilution. As to conditions: Lactobacillus johnsonii, STRAIN1351CHN; L. johnsonii 135-1-CHN; CAMHB with 5% laked horse blood, ~48 h; duplicate; read-out: MIC. It counts as cell-based.
A further series concerns L. plantarum ATCC 8014. Briefly: MIC by broth microdilution. The following applies: Lactiplantibacillus plantarum, ATCC8014; L. plantarum ATCC 8014; CAMHB with 5% laked horse blood, ~48 h; duplicate; read-out: MIC. The class given is cell-based.
Series [21] relates to L. reuteri Strain CF48-3A. Briefly: MIC by broth microdilution. The class given is cell-based, Lactobacillus reuteri. As to conditions: Limosilactobacillus reuteri; L. reuteri CF48-3A; CAMHB with 5% laked horse blood, ~48 h; duplicate; read-out: MIC.
Series [22] has as its system B. fragilis Strain CL05T00C42. Description: MIC by broth microdilution. The class given is cell-based. The following applies: Bacteroides fragilis; B. fragilis CL05T00C42; supplemented Brucella broth, anaerobic; duplicate; read-out: MIC.
Series [23] deals with B. thetaiotaomicron ATCC 29148. Description: microbe, parasite or virus in culture. It counts as cell-based. The following applies: Bacteroides thetaiotaomicron, ATCC29148; B. thetaiotaomicron ATCC 29148; supplemented Brucella broth, anaerobic; duplicate; read-out: MIC.
In another series the test system is P. distasonis ATCC 8503. Briefly: MIC by broth microdilution. The following applies: Parabacteroides distasonis, ATCC8503; P. distasonis ATCC 8503; supplemented Brucella broth, anaerobic; duplicate; read-out: MIC. The class given is cell-based.
The next series deals with P. nigrescens ATCC 33563. Description: MIC by broth microdilution. It counts as cell-based. The following applies: Prevotella nigrescens, ATCC33563; P. nigrescens ATCC 33563; supplemented Brucella broth, anaerobic; duplicate; read-out: MIC.
In another series the test system is B. subtilis ATCC 6051. Briefly: MIC by broth microdilution. The class given is cell-based. The following applies: Bacillus subtilis, ATCC6051; B. subtilis ATCC 6051; CAMHB, aerobic; duplicate; read-out: MIC.
A further series has as its system S. aureus RN4220. Briefly: MIC by broth microdilution. As to conditions: Staphylococcus aureus, CAMHB, aerobic, duplicate. It counts as cell-based.
For another series, the system named is S. epidermidis 1457. Description: MIC by broth microdilution. The class given is cell-based. The following applies: Staphylococcus epidermidis; S. epidermidis 1457; CAMHB, aerobic; duplicate; read-out: MIC.
For the next series, the system named is A. baumannii M2. Description: MIC by broth microdilution. It counts as cell-based. As to conditions: Acinetobacter baumannii; A. baumannii M2; CAMHB, aerobic; duplicate; read-out: MIC.
A further series has as its system P. aeruginosa PAO1. Description: MIC by broth microdilution. It counts as cell-based. The following applies: Pseudomonas aeruginosa; P. aeruginosa PAO1; CAMHB, aerobic; duplicate; read-out: MIC.
Series [24] relates to panel of obligate aerobes, facultative anaerobes and obligate anaerobes. Description: Antibacterial spectrum, MIC against a panel of bacteria. As to conditions: whole panel of Table S3. The class given is cell-based.

Converted amounts (≈) assume the structure as drawn. A value given as a limit tells only on which side of the number the result lay.

With `O=C(Nc1cc(Cl)cc(Cl)c1O)c1c(O)c(Cl)cc(Cl)c1Cl` [Oxyclozanide, oxyclozanide], the MIC50 in the series with 16 C. difficile isolates is 1 µg/mL (≈ 2.49 µM). The MIC90 in the series with 16 C. difficile isolates came out at 1 µg/mL (≈ 2.49 µM). In the series on 16 C. difficile isolates, the “MIC Range” value is 0.5 to 2 µg/mL. Moreover, the MIC in [1] is 0.5 to 1 µg/mL (≈ 1.25 to 2.49 µM); in [2], 1 µg/mL (≈ 2.49 µM); in [3], 1 µg/mL (≈ 2.49 µM); in [4], 0.5 µg/mL (≈ 1.25 µM); in [5] it was 1 µg/mL (≈ 2.49 µM); in series [6] it was 0.5 µg/mL (≈ 1.25 µM). Besides, the MIC amounted to 1 µg/mL (≈ 2.49 µM) in [7]; 0.5 µg/mL (≈ 1.25 µM) in [8]; 2 µg/mL (≈ 4.98 µM) in [9]; 1 µg/mL (≈ 2.49 µM) in series [10]; 1 µg/mL (≈ 2.49 µM) in series [11]; 1 µg/mL (≈ 2.49 µM) in [12]. For the same compound, the MIC in series [13] and in [14] was 1 µg/mL (≈ 2.49 µM) in each case. Moreover, the hemolysis at 1 h, 32 µg/mL in the series “Hemolysis assay” was under 1%.

As for `O=C(Nc1ccc([N+](=O)[O-])cc1Cl)c1cc(Cl)ccc1O` [Niclosamide, niclosamide], in the series with 16 C. difficile isolates, the MIC50 came out at 1 µg/mL (≈ 3.06 µM). Further, in the series on 16 C. difficile isolates, the MIC90 was found to be 2 µg/mL (≈ 6.11 µM). The “MIC Range” value in the series on 16 C. difficile isolates was 0.5 to 4 µg/mL. Also, the MIC turned out to be 2 µg/mL (≈ 6.11 µM) in [1]; 1 µg/mL (≈ 3.06 µM) in series [2]; 0.5 µg/mL (≈ 1.53 µM) in [3]; 1 µg/mL (≈ 3.06 µM) in series [4]; 1 µg/mL (≈ 3.06 µM) in series [5]; 0.5 µg/mL (≈ 1.53 µM) in series [6]. Moreover, the MIC was 1 µg/mL (≈ 3.06 µM) in series [7]; 1 µg/mL (≈ 3.06 µM) in [8]; 1 µg/mL (≈ 3.06 µM) in [9]; 0.5 µg/mL (≈ 1.53 µM) in series [10]; 1 µg/mL (≈ 3.06 µM) in [11]; 1 µg/mL (≈ 3.06 µM) in series [12]. Besides, the MIC was 0.5 µg/mL (≈ 1.53 µM) in series [13] and 1 µg/mL (≈ 3.06 µM) in [14]. Besides, the hemolysis at 1 h, 32 µg/mL in the series “Hemolysis assay” was under 1%.

As to `O=C(Nc1ccc(Oc2ccc(Cl)cc2)cc1)c1cc(I)cc(I)c1` [Compound 5i], the MIC in series [15] (Clostridioides difficile, ATCCBAA1382, BHIS broth, anaerobic, 20–24 h, n = 2) is over 32 µg/mL; in series [16] (Clostridioides difficile, ATCCBAA1870, BHIS broth, anaerobic, 20–24 h, n = 2, read-out: MIC C. difficile 4118) it was over 32 µg/mL; in series [17], over 32 µg/mL; in series [18] it was over 32 µg/mL; in [19], over 32 µg/mL; against C. sporogenes ATCC 15579 it was over 32 µg/mL. Besides, the MIC (in series [20]; in the series with L. plantarum ATCC 8014; in series [21]; in series [22]; in series [23]; in the series on P. distasonis ATCC 8503) was over 32 µg/mL each time. Moreover, the MIC with P. nigrescens ATCC 33563, in the series with B. subtilis ATCC 6051, against S. aureus RN4220, in the series with S. epidermidis 1457, in the series on A. baumannii M2 and in the series with P. aeruginosa PAO1 was over 32 µg/mL each time. Also, the “in vitro activity against CD630 (in words)” value in series [15] (growth inhibition, MIC assay) is “inactive”. Besides, the “in vitro activity against CD4118 (in words)” value in [16] (growth inhibition, MIC assay) was “inactive”. For the same compound, the “antibacterial activity (in words)” value in series [24] is listed as “lacked antibacterial activity”.
